The source made the active and inactive calls.

Assay [1] concerns the target T1, Microphthalmia-associated transcription factor (Homo sapiens, UniProt O75030).
T1 sequence (O75030 whole entry): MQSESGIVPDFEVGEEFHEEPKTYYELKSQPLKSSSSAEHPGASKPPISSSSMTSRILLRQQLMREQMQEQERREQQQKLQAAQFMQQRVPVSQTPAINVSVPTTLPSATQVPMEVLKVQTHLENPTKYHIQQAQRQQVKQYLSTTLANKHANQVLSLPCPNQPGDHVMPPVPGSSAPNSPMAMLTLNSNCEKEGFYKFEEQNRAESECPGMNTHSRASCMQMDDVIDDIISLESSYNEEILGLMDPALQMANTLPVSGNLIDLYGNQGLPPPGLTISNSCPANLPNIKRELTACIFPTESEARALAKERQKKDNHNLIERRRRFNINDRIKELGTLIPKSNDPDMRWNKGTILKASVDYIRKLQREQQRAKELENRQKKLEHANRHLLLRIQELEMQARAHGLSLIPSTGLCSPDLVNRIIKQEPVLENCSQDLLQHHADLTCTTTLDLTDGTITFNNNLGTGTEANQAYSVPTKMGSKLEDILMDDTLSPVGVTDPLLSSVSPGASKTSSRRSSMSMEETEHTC
Put plainly: TRPM1 promoter luciferase signal decrease, dose response, MITF inhibitor project, cell-based, SK-MEL-5, cherry-picked, set 3 (AID 493073).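 Note: SK-MEL-5 melanoma cells with luciferase driven by the MITF target TRPM1 promoter.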 It counts as functional.

A short description of assay [2]: Fluorescence-based cell-based high throughput dose response assay for inhibitors of the interaction of nucleotide-binding oligomerization domain containing 2 (NOD2) and the receptor-interacting serine-threonine kinase 2 (RIPK2). It counts as functional. Conditions: Homo sapiens.
The target of assay [3] is T2, Replicative DNA helicase DnaB (Mycobacterium tuberculosis, UniProt P9WMR3).
T2 sequence (P9WMR3 whole entry): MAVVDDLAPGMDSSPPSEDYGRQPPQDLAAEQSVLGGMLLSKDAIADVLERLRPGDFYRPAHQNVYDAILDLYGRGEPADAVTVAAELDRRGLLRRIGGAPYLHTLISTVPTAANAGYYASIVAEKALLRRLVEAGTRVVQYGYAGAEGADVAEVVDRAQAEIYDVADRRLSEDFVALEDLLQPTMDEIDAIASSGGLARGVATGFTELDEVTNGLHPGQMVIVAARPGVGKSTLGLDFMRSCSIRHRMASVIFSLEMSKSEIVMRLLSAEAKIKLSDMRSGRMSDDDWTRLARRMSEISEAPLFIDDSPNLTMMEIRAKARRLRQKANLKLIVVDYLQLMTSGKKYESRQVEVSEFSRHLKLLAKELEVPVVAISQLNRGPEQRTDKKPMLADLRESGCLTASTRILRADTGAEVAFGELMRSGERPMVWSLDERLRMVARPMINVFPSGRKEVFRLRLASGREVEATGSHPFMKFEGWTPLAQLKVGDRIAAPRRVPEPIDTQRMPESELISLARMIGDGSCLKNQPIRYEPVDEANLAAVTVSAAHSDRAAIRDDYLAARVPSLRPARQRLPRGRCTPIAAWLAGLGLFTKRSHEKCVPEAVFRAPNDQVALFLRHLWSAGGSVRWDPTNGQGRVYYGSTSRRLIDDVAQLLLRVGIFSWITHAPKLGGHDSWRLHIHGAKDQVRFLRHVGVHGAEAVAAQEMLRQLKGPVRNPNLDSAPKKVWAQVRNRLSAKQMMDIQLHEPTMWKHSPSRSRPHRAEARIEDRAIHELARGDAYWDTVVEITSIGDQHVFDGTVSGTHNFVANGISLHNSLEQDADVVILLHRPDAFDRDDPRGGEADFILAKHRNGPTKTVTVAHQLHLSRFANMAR
Put plainly: DnaB intein splicing inhibitors, dose response, biochemical, cell-free fluorescence (AID 449749). The format is functional.

Assay [4] can be described thus: reduction of Shn3 3'UTR firefly luciferase signal, dose response, Schnurri-3 inhibitor project, cell-based, Clone20 osteoblasts, cherry-pick, set 2 (AID 720490).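 Note: actives lower the luminescence signal as inhibitors.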 The format is functional.
Assay [5] in a line: control 3'UTR Renilla luciferase suppression, dose response, counter-screen for Shn3 inhibitor project, cell-based, Clone20-Shn3RL, cherry-picked (AID 624133). It counts as functional.
Assay [6] concerns the target Beta Lactamase (Pseudomonas aeruginosa, UniProt Q932Y6). Put plainly: beta-lactamase reporter inhibitor potency, dose response, artefact control for NOD2-RIPK2 interaction inhibitor project, BLA reporter cells, FRET fluorescence (AID 651552). It counts as functional, cell-based.
A short description of assay [7]: reduction of endogenous Shn3 mRNA, dose response, qPCR, Clone20 cells, cherry-pick (AID 743415). The format is functional, cell-based.
The target of assay [8] is T3, Protein RecA (Mycobacterium tuberculosis, UniProt P9WHJ3).
T3 sequence (P9WHJ3 whole entry): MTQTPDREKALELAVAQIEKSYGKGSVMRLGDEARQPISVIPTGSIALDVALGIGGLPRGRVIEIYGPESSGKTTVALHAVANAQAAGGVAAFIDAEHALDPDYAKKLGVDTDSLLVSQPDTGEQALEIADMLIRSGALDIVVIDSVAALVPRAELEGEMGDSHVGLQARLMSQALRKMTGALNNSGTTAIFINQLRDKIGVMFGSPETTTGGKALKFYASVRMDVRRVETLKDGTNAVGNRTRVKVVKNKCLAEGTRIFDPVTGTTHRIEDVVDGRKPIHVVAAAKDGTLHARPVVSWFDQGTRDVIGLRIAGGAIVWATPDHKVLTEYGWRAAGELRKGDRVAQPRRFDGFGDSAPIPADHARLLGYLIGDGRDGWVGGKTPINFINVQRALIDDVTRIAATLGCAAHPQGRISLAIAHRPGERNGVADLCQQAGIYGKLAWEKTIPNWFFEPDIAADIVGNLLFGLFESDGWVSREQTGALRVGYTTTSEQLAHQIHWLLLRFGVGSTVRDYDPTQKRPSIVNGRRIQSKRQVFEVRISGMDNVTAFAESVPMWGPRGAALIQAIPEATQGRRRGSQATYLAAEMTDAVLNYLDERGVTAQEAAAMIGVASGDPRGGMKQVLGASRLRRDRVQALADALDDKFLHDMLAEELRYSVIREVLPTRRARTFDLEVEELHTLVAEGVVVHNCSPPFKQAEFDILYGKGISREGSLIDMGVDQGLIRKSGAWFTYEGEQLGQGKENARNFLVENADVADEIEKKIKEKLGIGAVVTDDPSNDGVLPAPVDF
Put plainly: Fluorescence Cell-Free Homogeneous Dose Retest to Identify Inhibitors of RecA-Intein Splicing Activity. [Related pubchem assays (depositor defined):AID2097, AID2223, AID489010, AID492950]. The format is functional.

Assay [9] is described as follows: Shn3 3'UTR reporter inhibitors, dose response, cell-based, Clone20 osteoblasts, firefly luciferase, cherry-picked (AID 624132).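 Note: firefly luciferase luminescence from reporter carrying the Shn3 3'UTR in osteoblasts.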 The format is functional.
The target of assay [10] is T4, Fatty acid synthase (Homo sapiens, UniProt P49327). Put plainly: FAS thioesterase domain inhibitors, dose response, biochemical, kinetic fluorescence intensity (AID 624326).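 Note: rate of fluorescence rise from hydrolysis of a fluorogenic O-methyl fluorescein ester substrate.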 The format is functional.
T4 sequence (P49327 whole entry, the tested form may be a part): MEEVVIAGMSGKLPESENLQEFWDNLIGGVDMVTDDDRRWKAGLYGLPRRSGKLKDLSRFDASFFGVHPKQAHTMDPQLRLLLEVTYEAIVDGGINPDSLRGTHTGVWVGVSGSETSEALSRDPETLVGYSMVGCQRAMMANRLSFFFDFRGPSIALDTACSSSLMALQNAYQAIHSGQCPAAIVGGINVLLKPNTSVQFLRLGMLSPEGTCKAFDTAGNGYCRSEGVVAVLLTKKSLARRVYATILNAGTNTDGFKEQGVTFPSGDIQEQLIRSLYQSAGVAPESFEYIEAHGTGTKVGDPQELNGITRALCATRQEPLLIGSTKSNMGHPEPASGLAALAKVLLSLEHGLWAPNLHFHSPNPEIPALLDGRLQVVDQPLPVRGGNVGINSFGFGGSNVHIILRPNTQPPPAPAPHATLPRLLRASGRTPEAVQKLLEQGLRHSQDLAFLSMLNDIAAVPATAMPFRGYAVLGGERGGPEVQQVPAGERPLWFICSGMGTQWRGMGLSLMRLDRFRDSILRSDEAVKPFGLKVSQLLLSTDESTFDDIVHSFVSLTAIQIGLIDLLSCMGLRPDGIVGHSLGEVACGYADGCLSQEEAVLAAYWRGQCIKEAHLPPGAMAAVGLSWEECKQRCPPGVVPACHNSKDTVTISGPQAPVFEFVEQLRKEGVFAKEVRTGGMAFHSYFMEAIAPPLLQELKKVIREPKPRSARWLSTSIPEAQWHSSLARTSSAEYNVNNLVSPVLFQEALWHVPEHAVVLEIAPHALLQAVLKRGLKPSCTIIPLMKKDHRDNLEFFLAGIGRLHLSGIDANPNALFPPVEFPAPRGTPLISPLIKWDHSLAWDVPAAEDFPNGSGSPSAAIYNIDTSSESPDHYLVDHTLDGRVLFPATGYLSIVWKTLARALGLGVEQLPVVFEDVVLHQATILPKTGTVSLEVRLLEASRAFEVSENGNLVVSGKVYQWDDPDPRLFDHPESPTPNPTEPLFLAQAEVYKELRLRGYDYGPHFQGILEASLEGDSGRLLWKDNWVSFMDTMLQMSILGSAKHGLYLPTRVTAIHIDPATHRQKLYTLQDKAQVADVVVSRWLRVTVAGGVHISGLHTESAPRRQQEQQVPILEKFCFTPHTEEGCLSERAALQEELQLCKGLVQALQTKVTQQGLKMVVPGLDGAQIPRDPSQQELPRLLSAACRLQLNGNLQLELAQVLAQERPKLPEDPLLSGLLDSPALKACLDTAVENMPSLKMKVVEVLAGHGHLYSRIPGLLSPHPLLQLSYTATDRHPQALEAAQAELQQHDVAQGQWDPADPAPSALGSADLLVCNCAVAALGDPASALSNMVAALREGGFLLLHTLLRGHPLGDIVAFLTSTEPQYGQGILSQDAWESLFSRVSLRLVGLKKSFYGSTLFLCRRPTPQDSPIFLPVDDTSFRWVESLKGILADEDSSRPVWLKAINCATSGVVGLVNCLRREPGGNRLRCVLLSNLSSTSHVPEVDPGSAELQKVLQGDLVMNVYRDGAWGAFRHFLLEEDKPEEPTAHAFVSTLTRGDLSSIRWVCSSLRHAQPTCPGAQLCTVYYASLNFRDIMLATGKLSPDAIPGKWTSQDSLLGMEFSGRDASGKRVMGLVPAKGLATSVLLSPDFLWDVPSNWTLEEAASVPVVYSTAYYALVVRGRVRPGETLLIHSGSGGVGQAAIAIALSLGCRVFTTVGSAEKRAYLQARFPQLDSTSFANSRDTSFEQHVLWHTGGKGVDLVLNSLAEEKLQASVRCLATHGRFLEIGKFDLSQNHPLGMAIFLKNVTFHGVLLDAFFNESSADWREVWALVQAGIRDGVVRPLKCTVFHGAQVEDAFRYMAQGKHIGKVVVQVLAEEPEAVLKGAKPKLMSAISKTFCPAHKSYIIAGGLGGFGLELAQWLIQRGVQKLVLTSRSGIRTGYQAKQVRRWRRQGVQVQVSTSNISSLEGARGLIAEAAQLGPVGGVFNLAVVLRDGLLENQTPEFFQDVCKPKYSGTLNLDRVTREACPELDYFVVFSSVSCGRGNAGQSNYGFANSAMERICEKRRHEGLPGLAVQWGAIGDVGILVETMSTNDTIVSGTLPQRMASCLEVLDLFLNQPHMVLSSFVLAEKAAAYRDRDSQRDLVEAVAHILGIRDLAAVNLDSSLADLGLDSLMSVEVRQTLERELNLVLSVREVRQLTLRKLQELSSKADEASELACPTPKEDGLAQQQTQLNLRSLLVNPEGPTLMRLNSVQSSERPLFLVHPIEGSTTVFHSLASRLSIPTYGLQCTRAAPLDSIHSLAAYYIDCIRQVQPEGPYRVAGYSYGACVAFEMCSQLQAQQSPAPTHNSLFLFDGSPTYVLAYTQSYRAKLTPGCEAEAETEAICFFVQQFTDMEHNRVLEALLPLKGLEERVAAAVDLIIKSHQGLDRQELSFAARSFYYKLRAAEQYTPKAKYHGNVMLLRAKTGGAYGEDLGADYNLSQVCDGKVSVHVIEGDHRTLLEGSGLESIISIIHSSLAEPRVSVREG
The nature of assay [11]: HepG2 cell cytotoxicity, dose response, cytotoxicity control for Shn3 inhibitor project, CellTiter-Glo, cherry-picked (AID 624134). It counts as functional, cell-based.
Assay [12] addresses T4, Fatty acid synthase. Put plainly: FAS thioesterase domain inhibitors, dose response, biochemical, endpoint fluorescence intensity, uHTS hits (AID 624327).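 Note: fluorescence from hydrolysis of an O-methyl fluorescein acyl ester substrate by the enzyme.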 It counts as functional.
Assay [13] in a line: NIH/3T3 fibroblast cytotoxicity, dose response, cytotoxicity control, cell-based, plate reader, dry powder, set 2 (AID 652280). The format is functional. Conditions: NIH3T3.
Assay [14] in a line: HepG2 cell cytotoxicity, dose response, cytotoxicity control, ATP luminescence, cherry-pick, set 6 (AID 1053125). It counts as functional, cell-based.
Assay [15] can be described thus: Luminescence Cell-Based Dose Retest to Confirm Inhibitors of Cancer Stem Cells. [Related pubchem assays (depositor defined):AID2717, AID2721]. The format is functional. Conditions: Homo sapiens.
Assay [16] can be described thus: cells. The conditions noted are these: A549.
A short description of assay [17]: CFTR ΔF508 corrector activity in bronchial cells, dose response, human bronchial epithelial cells, plate reader, cherry-pick, two tests (AID 743267). The format is functional, cell-based.
Assay [18] in a line: inhibitors of non-replicating M. tuberculosis, dose response, luciferase, dry powder (AID 651619). The format is functional. The conditions noted are these: Mycobacterium tuberculosis.
Assay [19] in a line: inhibitors of non-replicating M. tuberculosis, dose response, luciferase, dry powder (AID 651620). The format is functional. The conditions noted are these: Mycobacterium tuberculosis.
Assay [20] is described as follows: cells. The format is functional, cell-based.
Assay [21] is described as follows: cells. It counts as functional, cell-based. The source holds these as a separate data set.
For assay [22], the target named is T5, Trace amine-associated receptor 1 (Homo sapiens, UniProt Q96RJ0). Put plainly: Fluorescence-based cell-based high throughput dose response assay to identify agonists of the human trace amine associated receptor 1 (TAAR1). It counts as functional.
T5 sequence (Q96RJ0 whole entry): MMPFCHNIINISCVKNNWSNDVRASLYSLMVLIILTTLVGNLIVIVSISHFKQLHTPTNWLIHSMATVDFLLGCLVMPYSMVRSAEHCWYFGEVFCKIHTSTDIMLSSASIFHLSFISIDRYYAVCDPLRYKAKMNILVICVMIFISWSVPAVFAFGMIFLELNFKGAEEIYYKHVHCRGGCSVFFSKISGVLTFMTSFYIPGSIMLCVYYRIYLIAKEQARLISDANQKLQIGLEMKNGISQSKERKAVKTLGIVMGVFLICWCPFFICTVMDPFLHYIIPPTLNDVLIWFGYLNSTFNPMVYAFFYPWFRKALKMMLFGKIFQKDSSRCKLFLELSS
The target of assay [23] is T5, Trace amine-associated receptor 1. Put plainly: Counterscreen for agonists of the human trace amine associated receptor 1 (hTAAR1): Fluorescence-based cell-based high throughput dose response assay to identify hTAAR1 agonist that also desensitize TAAR1 receptor response. It counts as functional.

Beta Lactamase, sequence (Q932Y6 whole entry): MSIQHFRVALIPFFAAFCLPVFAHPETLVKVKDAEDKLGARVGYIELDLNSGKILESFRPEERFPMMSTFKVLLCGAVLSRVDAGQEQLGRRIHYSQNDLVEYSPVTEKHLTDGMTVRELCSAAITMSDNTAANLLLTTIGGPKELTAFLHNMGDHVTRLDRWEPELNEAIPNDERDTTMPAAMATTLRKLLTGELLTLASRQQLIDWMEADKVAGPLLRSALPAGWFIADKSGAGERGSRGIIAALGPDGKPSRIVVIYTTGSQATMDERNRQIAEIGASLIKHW

As to `CC(C)[C@H](NC(=O)OC(C)(C)C)c1nnc(S(=O)(=O)Cc2c(F)cccc2Cl)o1`, the AC50 is 11.6 µM (active) in assay [1]; 4.9 µM (active) in [3]; 3.07 µM (active) in assay [4]; 13.5 µM (active) in assay [5]; 12 µM (active) in assay [7]; 1.08 µM (active) in assay [9]. Further, the AC50 in [11] was 61.7 µM (active). For the same compound, the IC50 in assay [2] is 1.97 µM (active); in assay [6], 10.5 µM (inactive); in [10] it was 1.61 µM (active); in assay [12] it was 3.02 µM (active). Besides, in [8], the EC50 is 9.61 µM (active).
Turning to `Cc1ccccc1-c1ccc([C@H]2[C@H](CO)N3CCCCN(CC4CC4)C[C@@H]23)cc1`, the AC50 in assay [13] was 3.99 µM (active).
In the case of `CCCCCCc1cc2cc(S(=O)(=O)c3ccc(C)cc3)c(=O)oc2cc1O`, the AC50 was > 52 µM (inactive) in assay [14], 2.46 µM (active) in assay [15] and 37.9 µM (active) in [16].
On to `CC(C)Oc1[nH]cnc2c3ccccc3nc1-2`, for which the concentration at half-maximal activity (AC50) in assay [17] is 9.38 µM (active).
Regarding `Fc1ccc(-c2nnc(SCc3cn(-c4ccccc4)nn3)o2)cc1`, the IC90 in assay [18] and in assay [19] was 1 µM (active) in each case.
With `Cc1ccc2cc(CNCCc3ccccc3C)c(O)nc2c1`, the EC50 is > 29.9 µM (inactive) in assay [20] and 2.34 µM (active) in assay [22]. In addition, the IC50 in assay [21] was > 29.9 µM (inactive); in assay [23], 3.54 µM (active).

The values above are taken from ChEMBL document CHEMBL1201862, “PubChem BioAssay data set” (2004).
